Laboratory results as given in patent publication US20250313572A1, “MACROCYCLIC MCL-1 INHIBITORS AND METHODS OF USE” (AbbVie Inc., priority 2017, published 2025).
Like-named read-outs stand apart in the source and are kept apart here.

Assays:
GST-MCL-1 = GST-MCL-1 (Homo sapiens, UniProt Q07820); experiment: TR-FRET MCL-1 binding assay (competition with probe F-Bak)
Description: Tb-anti-GST antibody was purchased from Invitrogen (Catalog No. PV4216).
For the assay, an acoustic dispenser was used to prepare dilution series from 10 mM test compounds in 100% DMSO and directly transfer 160 nL into low volume 384-well assay plates. 8 μL of a protein/probe/antibody mix was then added to each well resulting in final concentrations listed below: • Test compound: 11 three-fold dilutions beginning at 25 μM
The samples were then mixed on a shaker for 1 minute and incubated for an additional 2 hours at room temperature. For each assay plate, a probe/antibody and protein/antibody/probe mixture were included as a negative and a positive control, respectively. Fluorescence was measured on the Envision (Perkin Elmer) using a 340/35 nm excitation filter and 520/525 (F-Bak) and 495/510 nm (Tb-labeled anti-his antibody) emission filters. […] The TR-FRET assay can be performed in the presence of varying concentrations of human serum (HS) or fetal bovine serum (FBS). Compounds were tested both without HS and in the presence of 10% HS.

[1] = system: AMO-1 human multiple myeloma tumor cell line; experiment: AMO-1 cell viability assay (CellTiter-Glo, 24 hours); format: cell-based; conditions: Homo sapiens, AMO1, 24 h, read-out: AMO-1 Viability IC50 (μM, 10% FBS), 10% FBS, 24 hours of compound treatment
[2] = system: NCI-H929 human multiple myeloma tumor cell line; experiment: NCI-H929 cell viability assay (CellTiter-Glo, 24 hours); format: cell-based; conditions: Homo sapiens, NCI-H929, 24 h, read-out: H929 Viability IC50 (μM, 10% FBS), 10% FBS, 24 hours of compound treatment
[3] = MCL-1 Binding Ki (nM, 10% HS), in the presence of 10% HS (human serum)
[4] = without HS, read-out: MCL-1 Binding Ki

Sequence of GST-MCL-1 (Q07820 whole entry): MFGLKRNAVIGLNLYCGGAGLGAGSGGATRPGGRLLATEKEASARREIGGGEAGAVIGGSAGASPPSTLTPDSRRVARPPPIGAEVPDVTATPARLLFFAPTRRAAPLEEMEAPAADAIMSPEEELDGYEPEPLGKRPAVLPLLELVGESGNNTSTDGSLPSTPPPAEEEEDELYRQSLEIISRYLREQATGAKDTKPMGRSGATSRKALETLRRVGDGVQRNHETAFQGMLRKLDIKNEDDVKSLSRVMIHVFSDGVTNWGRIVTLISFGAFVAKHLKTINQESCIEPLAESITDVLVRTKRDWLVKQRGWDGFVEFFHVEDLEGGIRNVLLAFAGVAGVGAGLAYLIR

SMILES	Ki (GST-MCL-1; [3]) [nM]	Ki (GST-MCL-1; [4]) [nM]	IC50 [1] [nM]	IC50 [2] [µM]
Cc1c2ccc(c1Cl)O[C@H](CN1CCN(C)CC1)COc1ccc(OCc3ccnc(-c4ccccc4OCC(=O)O)n3)c(c1)C[C@H](C(=O)O)Oc1ncnc3sc(-c4ccc(F)cc4)c-2c13 (atropisomer, axis not shown) [Example 24, (7R,16R,21S)-10-({2-[2-(carboxymethoxy)phenyl]pyrimidin-4-yl}methoxy)-19-chloro-1-(4-fluorophenyl)-20-methyl-16-[(4-methylpiperazin-1-yl)methyl]-7,8,15,16-tetrahydro-18,21-etheno-13,9-(metheno)-6,14,17-trioxa-2-thia-3,5-diazacyclononadeca[1,2,3-cd]indene-7-carboxylic Acid]	0.098	0.015	38.5	0.157
COCCOCCOCCOc1ccc(-c2nccc(COc3ccc4cc3C[C@H](C(=O)O)Oc3ncnc5sc(-c6ccc(F)cc6)c(c35)-c3c(C)c(Cl)c(c(Cl)c3C)O[C@H](CN3CCN(C)CC3)CO4)n2)cn1 [Example 46, (7R,16R)-19,23-dichloro-1-(4-fluorophenyl)-10-{[2-(6-{2-[2-(2-methoxyethoxy)ethoxy]ethoxy}pyridin-3-yl)pyrimidin-4-yl]methoxy}-20,22-dimethyl-16-[(4-methylpiperazin-1-yl)methyl]-7,8,15,16-tetrahydro-18,21-etheno-13,9-(metheno)-6,14,17-trioxa-2-thia-3,5-diazacyclononadeca[1,2,3-cd]indene-7-carboxylic Acid]	1.08	1.02	0.27	0.000388
Cc1c(Cl)c2c(Cl)c(C)c1-c1c(-c3ccc(F)cc3)sc3ncnc(c13)O[C@@H](C(=O)O)Cc1cc(ccc1OCc1ccnc(-c3cccc(CCN4CCOCC4)c3)n1)OC[C@@H](CN1CCN(C)CC1)O2 [Example 143, (7R,16R)-19,23-dichloro-1-(4-fluorophenyl)-20,22-dimethyl-16-[(4-methylpiperazin-1-yl)methyl]-10-[(2-{3-[2-(morpholin-4-yl)ethyl]phenyl}pyrimidin-4-yl)methoxy]-7,8,15,16-tetrahydro-18,21-etheno-13,9-(metheno)-6,14,17-trioxa-2-thia-3,5-diazacyclononadeca[1,2,3-cd]indene-7-carboxylic Acid]	0.175	0.023	0.216	0.000203
COCCOCCOC[C@@H]1CC=C(c2nccc(COc3ccc4cc3C[C@H](C(=O)O)Oc3ncnc5sc(-c6ccc(F)cc6)c(c35)-c3c(C)c(Cl)c(c(Cl)c3C)O[C@H](CN3CCN(C)CC3)CO4)n2)CC1 [Example 128, (7R,16R)-19,23-dichloro-1-(4-fluorophenyl)-10-({2-[(4S)-4-{[2-(2-methoxyethoxy)ethoxy]methyl}cyclohex-1-en-1-yl]pyrimidin-4-yl}methoxy)-20,22-dimethyl-16-[(4-methylpiperazin-1-yl)methyl]-7,8,15,16-tetrahydro-18,21-etheno-13,9-(metheno)-6,14,17-trioxa-2-thia-3,5-diazacyclononadeca[1,2,3-cd]indene-7-carboxylic Acid]	0.275	0.027	0.0939	0.000313
COCCOCCOCCOCCOC[C@H]1CCCC[C@@H]1c1nccc(COc2ccc3cc2C[C@H](C(=O)O)Oc2ncnc4sc(-c5ccc(F)cc5)c(c24)-c2c(C)c(Cl)c(c(Cl)c2C)O[C@H](CN2CCN(C)CC2)CO3)n1 (relative stereo) [Example 124, (7R,16R)-19,23-dichloro-1-(4-fluorophenyl)-20,22-dimethyl-16-[(4-methylpiperazin-1-yl)methyl]-10-({2-[(1S*,2S*)-2-(2,5,8,11,14-pentaoxapentadecan-1-yl)cyclohexyl]pyrimidin-4-yl}methoxy)-7,8,15,16-tetrahydro-18,21-etheno-13,9-(metheno)-6,14,17-trioxa-2-thia-3,5-diazacyclononadeca[1,2,3-cd]indene-7-carboxylic Acid]	0.145	0.012	0.355	0.000818
Cc1c(Cl)c2c(Cl)c(C)c1-c1c(-c3ccc(F)cc3)sc3ncnc(c13)O[C@@H](C(=O)O)Cc1cc(ccc1OCc1ccnc([C@H]3CC[C@H](OCCOCC4COCCO4)CC3)n1)OC[C@@H](CN1CCN(C)CC1)O2 (stereo partly drawn) [Example 92, (7R,16R)-19,23-dichloro-10-({2-[(1r,4r)-4-{2-[(1,4-dioxan-2-yl)methoxy]ethoxy}cyclohexyl]pyrimidin-4-yl}methoxy)-1-(4-fluorophenyl)-20,22-dimethyl-16-[(4-methylpiperazin-1-yl)methyl]-7,8,15,16-tetrahydro-18,21-etheno-13,9-(metheno)-6,14,17-trioxa-2-thia-3,5-diazacyclononadeca[1,2,3-cd]indene-7-carboxylic Acid]			0.223	0.00031
Cc1c(Cl)c2c(Cl)c(C)c1-c1c(-c3ccc(F)cc3)sc3ncnc(c13)O[C@@H](C(=O)O)Cc1cc(ccc1OCc1ccnc(OC[C@@H]3CN(C)CCCO3)n1)OC[C@@H](CN1CCN(C)CC1)O2 [Example 177, (7R,16R)-19,23-dichloro-1-(4-fluorophenyl)-20,22-dimethyl-10-[(2-{[(2S)-4-methyl-1,4-oxazepan-2-yl]methoxy}pyrimidin-4-yl)methoxy]-16-[(4-methylpiperazin-1-yl)methyl]-7,8,15,16-tetrahydro-18,21-etheno-13,9-(metheno)-6,14,17-trioxa-2-thia-3,5-diazacyclononadeca[1,2,3-cd]indene-7-carboxylic Acid]			4.22	0.00929
Cc1c(Cl)c2c(Cl)c(C)c1-c1c(-c3ccc(F)cc3)sc3ncnc(c13)O[C@@H](C(=O)O)Cc1cc(ccc1OCc1ccnc(-c3ccc(OCCN4CCOCC4)cc3)n1)OC[C@@H](CN1CCN(C)CC1)O2 [Example 168, (7R,16R)-19,23-dichloro-1-(4-fluorophenyl)-20,22-dimethyl-16-[(4-methylpiperazin-1-yl)methyl]-10-[(2-{4-[2-(morpholin-4-yl)ethoxy]phenyl}pyrimidin-4-yl)methoxy]-7,8,15,16-tetrahydro-18,21-etheno-13,9-(metheno)-6,14,17-trioxa-2-thia-3,5-diazacyclononadeca[1,2,3-cd]indene-7-carboxylic Acid]	0.671	0.025		
COCCOCCOc1ccc(-c2ccccc2OC)nc1COc1ccc2cc1C[C@H](C(=O)O)Oc1ncnc3sc(-c4ccc(F)cc4)c(c13)-c1c(C)c(Cl)c(c(Cl)c1C)O[C@H](CN1CCN(C)CC1)CO2 [Example 178, (7R,16R)-19,23-dichloro-1-(4-fluorophenyl)-10-({3-[2-(2-methoxyethoxy)ethoxy]-6-(2-methoxyphenyl)pyridin-2-yl}methoxy)-20,22-dimethyl-16-[(4-methylpiperazin-1-yl)methyl]-7,8,15,16-tetrahydro-18,21-etheno-9,13-(metheno)-6,14,17-trioxa-2-thia-3,5-diazacyclononadeca[1,2,3-cd]indene-7-carboxylic Acid]			152	0.37
Cc1c(Cl)c2c(Cl)c(C)c1-c1c(-c3ccc(F)cc3)sc3ncnc(c13)O[C@@H](C(=O)O)Cc1cc(ccc1OCc1ccnc(-c3ccc(O[C@H]4CO[C@H]5[C@@H]4OC[C@@H]5O)cc3)n1)OC[C@@H](CN1CCN(C)CC1)O2 [Example 174, (7R,16R)-19,23-dichloro-1-(4-fluorophenyl)-10-{[2-(4-{[(3S,3aR,6S,6aR)-6-hydroxyhexahydrofuro[3,2-b]furan-3-yl]oxy}phenyl)pyrimidin-4-yl]methoxy}-20,22-dimethyl-16-[(4-methylpiperazin-1-yl)methyl]-7,8,15,16-tetrahydro-18,21-etheno-13,9-(metheno)-6,14,17-trioxa-2-thia-3,5-diazacyclononadeca[1,2,3-cd]indene-7-carboxylic Acid]	0.2	0.008		
Cc1c(Cl)c2c(Cl)c(C)c1-c1c(-c3ccc(F)cc3)sc3ncnc(c13)O[C@@H](C(=O)O)Cc1cc(ccc1OCc1ccnc(-c3ccc(OC[C@@H]4CN(C)CCCO4)cc3)n1)OC[C@@H](CN1CCN(C)CC1)O2 [Example 173, (7R,16R)-19,23-dichloro-1-(4-fluorophenyl)-20,22-dimethyl-10-{[2-(4-{[(2S)-4-methyl-1,4-oxazepan-2-yl]methoxy}phenyl)pyrimidin-4-yl]methoxy}-16-[(4-methylpiperazin-1-yl)methyl]-7,8,15,16-tetrahydro-18,21-etheno-13,9-(metheno)-6,14,17-trioxa-2-thia-3,5-diazacyclononadeca[1,2,3-cd]indene-7-carboxylic Acid]			1.14	0.00452
COCCOCCOCCOCCOCCOC[C@H]1CN(c2nccc(COc3ccc4cc3C[C@H](C(=O)O)Oc3ncnc5sc(-c6ccc(F)cc6)c(c35)-c3c(C)c(Cl)c(c(Cl)c3C)O[C@H](CN3CCN(C)CC3)CO4)n2)CCO1 [Example 83, (7R,16R)-19,23-dichloro-1-(4-fluorophenyl)-10-({2-[(2R)-2-(2,5,8,11,14,17-hexaoxaoctadecan-1-yl)morpholin-4-yl]pyrimidin-4-yl}methoxy)-20,22-dimethyl-16-[(4-methylpiperazin-1-yl)methyl]-7,8,15,16-tetrahydro-18,21-etheno-13,9-(metheno)-6,14,17-trioxa-2-thia-3,5-diazacyclononadeca[1,2,3-cd]indene-7-carboxylic Acid]				0.0026
